Laboratory results as given in US6525094B1, “Method of treating hair loss using diphenylether derivatives” (The University of Texas Southwestern Medical Center, priority 1999, dated 2003).

System: male Sprague Dawley rats
Assay: Cardiotoxicity Assay (heart-to-body weight ratio)
Type: in vivo, rat
Conditions: 250 μg of test compound per kg subcutaneously once daily for 28 days, hearts weighed on day 30
From the text: The cardiotoxicity assay measures the potential of a test compound to adversely affect the cardiovascular system. As thyroid hormone (T3) damages the cardiovascular system, the heart enlarges. See, e.g., Gomberg-Maitland et al., “Thyroid hormone and Cardiovascular Disease”, American Heart Journal, Vol. 135(2), pp. 187-196 (1998); Klein and Ojamaa, “Thyroid Hormone and the Cardiovascular System”, Current Opinion in Endocrinology and Diabetes, Vol. 4, pp.341-346 (1997); and Klemperer et al., “Thyroid Hormone Therapy and Cardiovascular Disease”, Progress in Cardiovascular Diseases, Vol. 37 (4), pp. 329-336 (1996). This increases the weight of the heart relative to whole body weight. The cardiotoxicity assay herein below is used to test compounds for potentially adverse cardiac effects by measuring their effect on the heart-to-body weight ratio.
Two groups each of six male Sprague Dawley rats (Harlan Sprague Dawley, Inc., Indianapolis, Ind.) (each weighing from approximately 220 grams to 235 grams) are utilized. The first group is a vehicle control group and the second group is a test compound group. The length of the assay is 30 days, with treatment of vehicle or test compound in vehicle daily for 28 of those days as described below.
Prior to initiation of the assay, each rat is allowed to acclimate to standard environmental conditions for 5 days. […]

Row | SMILES | cardiac-sparing (index C = RT/RV, heart/body weight ratio of test compound group divided by that of vehicle control group; C less than 1.3 = cardiac-sparing)
1 | N[C@@H](Cc1cc(I)c(Oc2ccc(O)c(I)c2)c(I)c1)C(=O)O [Example T3, thyronine] | not cardiac-sparing
2 | N[C@@H](Cc1cc(I)c(Oc2cc(I)c(O)c(I)c2)c(I)c1)C(=O)O [Example T4, thyroxine] | not cardiac-sparing
